From patent publication USRE40259E1, “Alpha-aminoamide derivatives useful as analgesic agents” (Newron Pharmaceuticals, S.p.A., priority 1997, dated 2008)
Marks after values point to notes of the source that are not given here.

Columns and labels:
Format in all cases: in vivo
mice [1] = test: Locomotor activity test; conditions: for Locomotor activity counts (mean ± sem): 60 min before test, 15 min test, mice; for Effect on locomotor activity: 7.5-60.0 mg/kg po, result in words
Protocol: (§1) The effects of these compounds on locomotor activity and rotarod (a test for evaluating motor co-ordination) were studied in order to exclude changes in these parameters as confounding factors in the evaluation of the formalin response. The locomotor activity test lasted 15 min. Five minutes after testing locomotor activity, the mice were put on the rotarod for 2 min and the number of mice falling within this time were counted. Compounds PNU 151774E and PNU 156654E were tested at the doses of 7.5, 15.0, 30.0 and 60.0 mg/kg; po. The compounds were administered 60 min before locomotor activity test.

Male NMRI CD-1 mice = test: Formalin test (formalin nociception test in mice); conditions: for Licking time, Acute phase / Licking time, Chronic phase: 60 min before formalin, mice; for Licking time, Acute phase: acute phase 0-5 min; for Licking time, Chronic phase: chronic phase 30-40 min; for Effect on cumulative licking time in both phases of the formalin test: 7.5-60.0 mg/kg po, result in words
Source text: Formalin test is a useful tool for obtaining neurogenic inflammation and continuous pain (Shibata et al, Pain, 38: 347-352, 1989).
Formalin produces a distinct biphasic response. The early phase seems to be caused predominantly by C-fibre activation due to peripheral stimulus, while the late phase appears to be dependent on the combination of an inflammatory reaction in the peripheral tissue and functional changes in the dorsal horn of the spinal cord. This functional changes seem to be initiated by the C-fibre barrage during the early phase (Tjolsen et al. Pain 51, 5-17, 1992). Substance P and bradykinin participate in the early phase, while histamine, serotonin, prostaglandins and bradykinin are involved in the late phase.
Male NMRI CD-1 mice (22-25 g) were injected with […] μl of 2.7% solution of formalin into the right hindpaw and placed immediately into observation chambers. The cumulative licking time of the injected paw was recorded in the acute phase (0-5 min) and in the chronic phase (30-40 min) of the nociceptive response of formalin.
The two representative compounds of the invention (S)-2-[4-(3- fluorobenzyloxy)benzylamino]-propanamide, methanesulfonate (internal code PNU 151774E) and (S)-[2-[4-(3-fluorobenzyloxy)benzylamino]-2-methyl-propanamide […] were administered 60 min before formalin injection at the doses of 7.5, 15.0, 30.0 and 60.0 mg/kg; po. Morphine (5 mg/kg; sc) was used as a positive standard. The activities data were analysed by Dunnett's t-test.

mice [2] = test: Rotarod (motor co-ordination); conditions: for Rotarod co-ordination (mice fallen/total mice): 2 min on rotarod; for Effect on rotarod activity: 7.5-60.0 mg/kg po, result in words
Protocol: as §1

Structure (SMILES) | Locomotor activity counts (mean ± sem) (mice [1]; 7.5 mg/kg po) [counts] | Locomotor activity counts (mean ± sem) (mice [1]; 15 mg/kg po) [counts] | Locomotor activity counts (mean ± sem) (mice [1]; 30 mg/kg po) [counts] | Locomotor activity counts (mean ± sem) (mice [1]; 60 mg/kg po) [counts] | Effect on locomotor activity (mice [1]) | Licking time, Acute phase (Male NMRI CD-1 mice; 7.5 mg/kg po) | Licking time, Chronic phase (Male NMRI CD-1 mice; 7.5 mg/kg po) | Licking time, Acute phase (Male NMRI CD-1 mice; 15.0 mg/kg po) | Licking time, Chronic phase (Male NMRI CD-1 mice; 15.0 mg/kg po) | Licking time, Acute phase (Male NMRI CD-1 mice; 30.0 mg/kg po) | Licking time, Chronic phase (Male NMRI CD-1 mice; 30.0 mg/kg po) | Licking time, Acute phase (Male NMRI CD-1 mice; 60.0 mg/kg po) | Licking time, Chronic phase (Male NMRI CD-1 mice; 60.0 mg/kg po) | Effect on cumulative licking time in both phases of the formalin test (Male NMRI CD-1 mice) | Rotarod co-ordination (mice fallen/total mice) (mice [2]; 7.5 mg/kg po) | Rotarod co-ordination (mice fallen/total mice) (mice [2]; 15 mg/kg po) | Rotarod co-ordination (mice fallen/total mice) (mice [2]; 30 mg/kg po) | Rotarod co-ordination (mice fallen/total mice) (mice [2]; 60 mg/kg po) | Effect on rotarod activity (mice [2])
CC(C)(NCc1ccc(OCc2cccc(F)c2)cc1)C(N)=O [PNU 156654E, 2-[4-(3-fluorobenzyloxy)benzylamino]-2-methyl-propanamide] | 1966 ± 188 | 2110 ± 256 | 2272 ± 317 | 2119 ± 310 | without any effect | 108.4 ± 4.2^ sec | 62.4 ± 3.6^ sec | 79.7 ± 3.7^a sec | 42.1 ± 6.2^a sec | 60.0 ± 2.3^a sec | 37.7 ± 6.9^a sec | 44.4 ± 4.2^a sec | 17.3 ± 6.6^a sec | dose-dependently reduced cumulative licking time in both phases | 0/10 | 0/10 | 0/10 | 0/10 | without any effect
C[C@H](NCc1ccc(OCc2cccc(F)c2)cc1)C(N)=O [PNU 151774E, (S)-2-[4-(3-fluorobenzyloxy)benzylamino]-propanamide, methanesulfonate] | 2908 ± 234 | 2795 ± 255 | 2347 ± 203 | 2240 ± 195 | without any effect | 137.9 ± 2.4^a sec | 72.4 ± 2.4^ sec | 87.9 ± 3.3^a sec | 64.3 ± 2.8^b sec | 79.4 ± 3.0^a sec | 56.9 ± 2.6^a sec | 63.1 ± 2.6^a sec | 38.1 ± 3.6^a sec | dose-dependently reduced cumulative licking time in both phases | 0/10 | 0/10 | 0/10 | 0/10 | without any effect
